Series [1] has as its system adjuvant arthritis (onset). Description: Arthritis-ablating activity: test material incorporated into the arthritigenic adjuvant. It is filed as in vivo, female Dark Agouti rats. The settings on record: for activity in preventing (ablating) adjuvant arthritis: summary of Table 3; for effect on arthritis score (AS): most tested at 10 mg/rat, no effect = AS 2.5+.
Series [2] relates to carrageenan-induced paw edema. Description: Carrageenan-induced paw edema (acute inflammation). Particulars: for ED50: Rattus norvegicus, oral, 45 minutes before carrageenan, read-out: effective dose for 50 percent reduction of the paw edema (ED50). The class given is in vivo, rat. On the procedure: To evaluate early i.e. rapid-acting therapeutic efficacy, carrageenan (1 mg in 0.1 ml saline) was injected into rear paws of rats to elicit a rapid onset (acute) inflammation. The ensuing paw edema was measured by the increase in paw thickness with a micrometer over the subsequent three hour period at hourly intervals.
The test drug formulations were given orally 45 minutes before injecting the carrageenan.
(In general: Carrageenan injected into the paw causes an acute inflammation.)

Series [3] concerns adjuvant-induced arthritis. In words: Experimental (adjuvant-induced) polyarthritis in rats, treatment of established arthritis. It is filed as in vivo, rat. Particulars: for Mean % Inhibition of Arthritis Score / Mean % Inhibition of Fore Paw Swelling / Mean % Inhibition of Rear Paw Swelling: per os, mg/kg per day: A-CSE 350, S-CSE 50, Aspirin 150 × 2, Ibuprofen 50, Naproxen 25; for Mean % Inhibition of Arthritis Score: days 10-13, day 14, independent observer; for Mean % Inhibition of Fore Paw Swelling / Mean % Inhibition of Rear Paw Swelling: days 10-13, measured day 14; for anti-inflammatory activity: tested at 50 mg/kg.

In series [4] the test system is NSAID-induced gastric lesions. In words: Gastric injury caused by aspirin/NSAIDs in pre-sensitised (pre-inflamed) rats, gastroprotection assay. Particulars: for incidence of gastric lesions and bleeding: pre-inflamed rats, aspirin 100 mg/kg, Naproxen 10 mg/kg, Ketoprofen 5 mg/kg orally, Piroxicam 5 mg/kg intraperitoneally. The procedure:
This model comprises oral or parenteral non-steroidal anti-inflammatory drugs (NSAIDs) given to rats whose gastrointestinal mucosa is pre-sensitized by prior development of arthritis or oleyl alcohol-induced inflammation. The animals are pre-sensitized by injection of an arthritogenic adjuvant or 0.1 ml oleyl alcohol 5 days prior to the assay.
The disease stress was induced five days previously either by injecting an arthritigenic adjuvant or 0.1 ml oleyl alcohol into the tail base to incite severe local inflammation. […] A-CSE or S-CSE was given orally within 20 seconds of the aspirin/NSAID. The number (N) and severity (S, graded on a score of 0 to 4 based on increasing area of injury) of gastric lesions as well as the percentage incidence of animals (%I) with gastric damage was recorded. The lesion index (LI) was then calculated as: LI=N/n+S/n+%I/10, where n=number of animals per group.
Gastroprotective activity was assessed in fasted (overnight) arthritic rats challenged with 50 mg/kg Ibuprofen given orally to induce gastric bleeding. Test preparations, dispersed with Tween-20, were given orally 20 seconds prior to Ibuprofen.
The procedure is further elaborated in K. Rainsford and M. Whitehouse [J. Pharm.

For series [5], the system named is production of prostaglandin E2. Description: Production of prostaglandin E2 by pig gastric (fundic) mucosal explants. The class given is cell-based. The settings on record: 10 μmol/L, pure samples.
Series [6] relates to adjuvant arthritis (onset). The settings on record: Haynes D R et al. Inflamm Res 45:159-165, 1996; cited from earlier work.

Each structure is given as a SMILES string.

As a reminder, the ED50 is the dose that gives a 50% effect, or the effect in half of the subjects. Turning to `CC(=O)Oc1ccccc1C(=O)O` [Aspirin], in series [1], the “activity in preventing (ablating) adjuvant arthritis” value (shortened to “activity in preventing”) is given as “not shared”. Besides, the ED50 in series [2] was found to be 200 mg/kg. In series [3], the “Mean % Inhibition of Arthritis Score” value worked out at 25%, the “Mean % Inhibition of Fore Paw Swelling” value is reported as 24% and the “Mean % Inhibition of Rear Paw Swelling” value was 40%. Besides, the “incidence of gastric lesions and bleeding” value in series [4] was 90%.

For `COc1c2ccoc2cc2oc(=O)ccc12` [Bergapten], the “activity in preventing” value in series [1] is “without such activity”.

As for `CCCCC1OC(=O)c2ccccc21` (stereo not shown) [Butylphthalide], the “activity in preventing” value in series [1] is “without such activity”. Besides, the anti-inflammatory activity entry in series [3] was “no anti-inflammatory or gastroprotective activity”. Further, the gastroprotective activity result in series [4] (tested at 50 mg/kg) is listed as “no anti-inflammatory or gastroprotective activity”.

`CC(C)Cc1ccc(C(C)C(=O)O)cc1` (stereo not shown) [Ibuprofen]: in series [1], the “activity in preventing” value is “not shared”. Moreover, in series [2] (Ibuprofen 15 mg/kg, Ketoprofen 1 mg/kg, alone, n=6, not statistically significant), the “inhibition of paw swelling” value was 19%. In series [2], the ED50 was found to be 45 mg/kg. Besides, in series [3] (four successive oral doses, Ibuprofen 30 mg/kg, A-CSE 50 mg/kg, S-CSE 5 mg/kg), the “suppression of arthritic paw swelling / inhibition of polyarthritis” value was found to be 38%. Moreover, in series [3], the “Mean % Inhibition of Arthritis Score” value was 36%, the “Mean % Inhibition of Fore Paw Swelling” value came to 39% and the “Mean % Inhibition of Rear Paw Swelling” value is on record as 38%. Also, the “mean number of haemorrhagic lesions (+/−SD)” value in series [4] (50 mg/kg, free acid or Nurofen, suspension 5 ml/kg, pre-inflamed female Wistar rats, n=90) is on record as 42+/−06. In series [4] (Ibuprofen 50 mg/kg with no celery (n=90 rats) or with celery extracts (n=67 rats)), the “animals with no macroscopically detectable gastric bleeding” value came out at 7%.

Turning to `C=C(C)[C@H]1CC=C(C)CC1` [Limonene], the “activity in preventing” value in series [1] is listed as “without such activity”. The “effect on production of prostaglandin E2” value in series [5] is given as “not”. Moreover, the anti-inflammatory activity entry in series [3] was “no anti-inflammatory or gastroprotective activity”.

Regarding `COc1ccc2cc([C@H](C)C(=O)O)ccc2c1` [Naproxen], in series [1], the “activity in preventing” value is on record as “not shared”. Moreover, in series [3], the “Mean % Inhibition of Arthritis Score” value came out at 64%, the “Mean % Inhibition of Fore Paw Swelling” value was determined as 36% and the “Mean % Inhibition of Rear Paw Swelling” value is given as 57%.

For `CCCCCCCCCCC/C=C\CCCCC(=O)OC` [Petroselenic acid methyl ester], the “activity in preventing” value in series [1] is “without such activity”.

As to `CN1C(C(=O)Nc2ccccn2)=C(O)c2ccccc2S1(=O)=O` [Piroxicam], in series [4], the “incidence of gastric lesions and bleeding” value stood at 90%.

In the case of `Cn1cnc([N+](=O)[O-])c1Sc1ncnc2nc[nH]c12` [azathioprine], the “effect on arthritis score (AS)” value in series [1] is on record as “no effect”.

In the case of `O=C(O)CCCc1ccc(N(CCCl)CCCl)cc1` [chlorambucil], the “effect on arthritis score (AS)” value in series [1] was “no effect”.

For `Nc1ccc(S(=O)(=O)c2ccc(N)cc2)cc1` [dapsone], in series [1], the “effect on arthritis score (AS)” value is on record as “no effect”.

Consider `O=C(O)c1ccccc1Nc1cc(Cl)ccc1C(=O)O` [lobenzarit], for which the “ablating the onset of arthritis” value in series [6] is “capable of ablating the onset of arthritis”.

For the compound `O=c1c(O)c(-c2cc(O)c(O)c(O)c2)oc2cc(O)cc(O)c12` [myricetin], the “effect on production of prostaglandin E2” value in series [5] is given as “inhibited”.

Turning to `O=c1c(O)c(-c2ccc(O)c(O)c2)oc2cc(O)cc(O)c12` [quercetin], in series [5], the “effect on production of prostaglandin E2” value is recorded as “inhibited”.

The record behind these values is patent US6761913B2, “Extracts of celery seed for the prevention and treatment of pain, inflammation and gastrointestinal irritation” (priority 1998, dated 2004).
